pIC50: −log10 of the molar value. ≈ marks a conversion by molar mass, not a printed value. Read-outs that look alike come from different tables or passages of the source.
What was measured:
[1] = target: T1, human ether-a-go-go related gene (hERG) channel (Homo sapiens, UniProt Q12809); experiment: hERG test; type: cell-based; settings: % inhibition of IKr tail peak current at 3 uM; CHO cells expressing hERG
T1 construct: expressed in transfected cells; host or cells: CHO cells
Excerpt: For the purpose of assessing risk of an electrocardiogram QT interval prolongation, effects on delayed rectifier K+ current (IKr), which plays an important role in the ventricular repolarization process of the compound of the present invention, was studied using CHO cells expressing human ether-a-go-go related gene (hERG) channel.
A cell was retained at a membrane potential of […] by whole cell patch clamp method using an automated patch clamp system (QPatch:Sophion Bioscience A/S). After application of leak potential at −50 mV, IKr induced by depolarization pulse stimulation at +20 mV for 2 seconds and, further, repolarization pulse stimulation at −50 mV for 2 seconds was recorded.

Metabolic stability test = type: in vitro ADME; settings: human liver microsomes, 37° C., 30 minutes, NADPH
Description: Using a commercially available pooled human liver microsomes, a compound of the present invention was reacted for a constant time, a remaining rate was calculated by comparing a reacted sample and an unreacted sample, thereby, a degree of metabolism in liver was assessed.
A reaction was performed (oxidative reaction) at 37° C. for 0 minute or 30 minutes in the presence of 1 mmol/L NADPH in 0.2 mL of a buffer (60 mmol/L Tris-HCl pH 7.4, 150 mmol/L potassium chloride, 10 mmol/L magnesium chloride) containing 0.5 mg protein/mL of human liver microsomes. After the reaction, 50 μL of the reaction solution was added to 100 μL of a methanol/acetonltrile=1/1 (v/v), mixed and centrifuged at 3000 rpm for 15 minutes. The compound of the present invention in the supernatant was quantified by LC/MS/MS or solid phase extraction (SPE)/MS, and a remaining amount of the compound of the present invention after the reaction area calculated, letting a compound amount at 0 minute reaction time to be 100%.

[2] = test system: Aβ production in neuroblastoma SH-SY5Y cells (SH/APPwt); experiment: β-amyloid (Aβ) production inhibitory effect in cell: 384-well; type: cell-based; settings: Homo sapiens, Assay format 384-well
Description: Neuroblastoma SH-SY5Y cells (SH/APPwt) with human wild-type β-APT excessively expressed therein were prepared at 4×10^5 cells/mL, and 50 μl portions thereof were inoculated into each well of a 384-well culture plate (Corning) added 0.5 μl of the test compound of the present invention (DMSO solution). The final DMSO concentration was 1%, and the amount of the cell culture was 50 μl. After the incubation was performed for 21 hours from the cell seeding, 5 μl of the culture supernatant was collected from each fraction. The amount of the Aβ in each fraction was measured.
The Aβ amount was measured as follows. 5 μl of a homogeneous time resolved fluoresrenee (HTRF) measurement reagent (Amyloid β1-40 peptide; CIS bio international) and 5 μl of the culture supernatant were put into a 384′well plate (a black plate: Corning) and mixed with each other, and then left standing overnight at 4° C. while the light was shielded. Then, the fluorescence intensity (620 nm and 665 nm) was measured with EnViston (Perkin Elmer life sciences).

Recombinant human BACE1 = target: T2, Recombinant human BACE1 (Homo sapiens, UniProt P56817); experiment: Assay of BACE1 inhibitory activity: 384-well; type: biochemical; settings: Assay format 384-well
T2 construct: purchased R&D Systems
T2 sequence (P56817 46-501): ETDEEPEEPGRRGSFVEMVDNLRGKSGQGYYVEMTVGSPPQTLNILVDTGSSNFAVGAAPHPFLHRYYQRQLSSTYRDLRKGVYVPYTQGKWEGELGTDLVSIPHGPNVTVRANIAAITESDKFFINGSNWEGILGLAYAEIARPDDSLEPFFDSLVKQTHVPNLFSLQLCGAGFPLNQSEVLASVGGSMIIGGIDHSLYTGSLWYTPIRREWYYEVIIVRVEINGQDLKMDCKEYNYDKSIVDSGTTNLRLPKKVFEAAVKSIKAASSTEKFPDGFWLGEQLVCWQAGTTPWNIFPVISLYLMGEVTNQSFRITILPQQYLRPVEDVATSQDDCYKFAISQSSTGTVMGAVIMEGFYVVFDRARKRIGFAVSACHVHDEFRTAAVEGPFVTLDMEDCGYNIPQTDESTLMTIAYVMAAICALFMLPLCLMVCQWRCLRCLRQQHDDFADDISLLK
Description: 5 μL of substrate peptide solution (Biotin-XSEVNLDAEFRHDSGC-Eu: X=ε-amino-n-capronic acid, Eu=Europium eryplate) was added to each well of 384-well plate (a black plate: Corning), and after addition of 0.1 μl of the compound of the present invention (DMSO solution) and 5 μl of Recombinant human BACE1 (R&D Systems), the reaction mixture was incubated at 25° C. for 2 hours. The substrate peptide was synthesized by reacting Cryptate TBPCOOH mono SMP (CIS bio international) with Biotin-XSEVNLDAEFRHDSGC (Peptide Institute, Inc.).
After the incubation for reaction, 10 μl of 8.0 μg/ml Streptavidin-XL665 (CIS bio International) dissolved in phosphate buffer (150 mmol/L K2HPO4-KH2PO4, pH 7.0, 0.008% Triton X-100, 0.8 mol/L KF) was added to each well and left stand at 25° C. for 30 minutes.

Solubility test = type: physicochemical; settings: for solubility kinetic at 1 h: kinetic from dmso stock; for solubility kinetic at 16 h: solubility in JP 2nd fluid B, 1% DMSO, *2: shaken for 1 hour at room temperature
Description: A 10 mmol/L solution of the compound was prepared with DMSO, and 2 μL of the compound of the present invention solution was added, respectively, to 198 μL of JP 1st fluid (water was added to 2.0 g of sodium chloride and 7.0 ml, of hydrochloric acid to reach 1000 mL) and JP 2nd fluid (See Table 4). The mixture was left standing for 16 hours at 25° C. or shaken for 1 hour at ruom temperature, and the mixture was vacuum-filtered. The […] was ten or one hundred-fold diluted with metbanol/water=1/1 (v/v) or MeCN/MeOH/H2O(=1/1/2), and the compound concent ration in the filtrate was measured with LC/MS or solid phase extraction (SPE)/MS by the absolute calibration method.

[3] = target: T3, P-gp (MDR1 expressing LLC-PK1 cells) (Homo sapiens, UniProt P08183); experiment: P-gp substrate test; type: in vitro ADME; settings: net flux = Efflux Ratio in MDR1 expressing cells / Efflux Ratio in parent LLC-PK1 cells
T3 construct: host or cells: LLC-PK1
T3 sequence (P08183 whole entry): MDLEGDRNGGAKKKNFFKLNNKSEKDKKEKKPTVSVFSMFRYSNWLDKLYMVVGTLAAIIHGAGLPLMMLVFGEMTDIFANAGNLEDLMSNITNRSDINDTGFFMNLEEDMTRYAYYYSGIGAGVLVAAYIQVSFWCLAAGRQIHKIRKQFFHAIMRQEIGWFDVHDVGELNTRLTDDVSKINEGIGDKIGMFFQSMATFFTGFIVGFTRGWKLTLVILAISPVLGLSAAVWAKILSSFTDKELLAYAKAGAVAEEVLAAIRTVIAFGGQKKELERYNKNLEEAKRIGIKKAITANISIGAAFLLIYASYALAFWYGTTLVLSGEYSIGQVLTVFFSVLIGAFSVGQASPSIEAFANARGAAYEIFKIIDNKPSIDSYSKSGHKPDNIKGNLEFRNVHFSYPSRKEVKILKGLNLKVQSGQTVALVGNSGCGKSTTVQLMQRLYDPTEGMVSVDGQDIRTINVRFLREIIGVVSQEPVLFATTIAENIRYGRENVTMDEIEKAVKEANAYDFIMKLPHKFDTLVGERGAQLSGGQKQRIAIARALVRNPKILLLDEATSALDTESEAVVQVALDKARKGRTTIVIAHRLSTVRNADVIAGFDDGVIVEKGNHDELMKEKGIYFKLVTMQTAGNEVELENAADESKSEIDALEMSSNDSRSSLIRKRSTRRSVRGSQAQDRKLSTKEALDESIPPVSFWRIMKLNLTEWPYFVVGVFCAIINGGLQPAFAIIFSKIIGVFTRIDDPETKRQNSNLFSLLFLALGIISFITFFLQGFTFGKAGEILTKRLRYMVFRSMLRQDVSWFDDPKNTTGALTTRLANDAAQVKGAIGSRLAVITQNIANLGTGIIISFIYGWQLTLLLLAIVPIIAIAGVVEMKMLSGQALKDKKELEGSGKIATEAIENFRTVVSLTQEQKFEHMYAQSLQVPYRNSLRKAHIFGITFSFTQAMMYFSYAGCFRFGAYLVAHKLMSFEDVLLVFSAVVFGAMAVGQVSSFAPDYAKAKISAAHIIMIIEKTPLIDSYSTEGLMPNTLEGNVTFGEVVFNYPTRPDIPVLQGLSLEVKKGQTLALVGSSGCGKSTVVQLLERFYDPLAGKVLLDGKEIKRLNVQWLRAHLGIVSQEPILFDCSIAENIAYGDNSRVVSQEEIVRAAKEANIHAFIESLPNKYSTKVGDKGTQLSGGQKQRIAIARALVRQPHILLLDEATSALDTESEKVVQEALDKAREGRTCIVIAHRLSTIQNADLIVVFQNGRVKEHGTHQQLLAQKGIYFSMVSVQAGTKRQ
Description: • 1. Cell line: • a. MDR/LLC-PK1 (Becton Dickinson) • b. LLC-PK1 (Becton Dickinson) • 2. Reference substrates: • a Digoxin (2 μM)
1. […] After incubation for designed time at 37° C., an aliquot (50 μL) of transport buffer in the donor and receiver side were collected. Assay was performed by duplicate or triplicate. 3. Reference substrate and the present invention in the aliquot was quantified by LC/MS/MS.
Pc(cm/sec)−Permeated amount (pmol)/area of cell membrane (cm2)/initial concentration (nM)/incubation time (sec)
The efflux ratio was calculated using the following equation:
Efflux Ratio=Basolateral-to-Apical Pe/Apical-to-Basolateral Pe
The net flux was calculated using the following equation
Net flux=Efflux Ratio in MDK1 expressing cells/Efflux Ratio in parent cells

CYP3A4 = target: T4, CYP3A4 (Homo sapiens, UniProt P08684); experiment: CYP inhibition test (CYP3A4); type: in vitro ADME; settings: pooled human liver microsomes; terfenadine hydroxylation
T4 construct: The commercially available pooled human liver microsomes are used as an enzyme resource; from tissue; host or cells: pooled human liver microsomes
T4 sequence (P08684 whole entry): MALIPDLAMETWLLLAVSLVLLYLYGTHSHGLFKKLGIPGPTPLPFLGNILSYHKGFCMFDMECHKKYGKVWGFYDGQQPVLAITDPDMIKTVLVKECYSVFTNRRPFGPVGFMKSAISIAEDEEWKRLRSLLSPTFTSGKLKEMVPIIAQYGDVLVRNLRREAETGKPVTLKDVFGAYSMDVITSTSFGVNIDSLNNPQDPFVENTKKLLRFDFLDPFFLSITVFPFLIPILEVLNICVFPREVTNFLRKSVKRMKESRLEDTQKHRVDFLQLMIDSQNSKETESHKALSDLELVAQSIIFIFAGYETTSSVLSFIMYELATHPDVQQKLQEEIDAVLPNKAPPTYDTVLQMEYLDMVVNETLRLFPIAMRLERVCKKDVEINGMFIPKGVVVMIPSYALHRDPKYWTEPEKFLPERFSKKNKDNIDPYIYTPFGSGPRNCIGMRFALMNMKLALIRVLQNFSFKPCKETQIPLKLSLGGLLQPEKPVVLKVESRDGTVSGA
Excerpt: (§1) The CYP inhibition test is a test to assess the inhibitory effect of a compound of the present invention towards typical substrate metabolism reactions on CYP enzymes in human liver microsomes. The marker reactions on human main five CYP enzymes (CYP1A2, 2C9, 2C19, 2D6, and 3A4) are used as follows: 7-ethoxyresorufin O-deethylation (CYP1A2), tolbutamide methyl-hydroxylation (CYP2C9), mephenytoin 4′-hydroxylation (CYP2C19), dextromethorphan O-demethylation (CYP2D6), and terfenadine hydroxylation (CYP3A4). The commercially available pooled human liver microsomes are used as an enzyme resource.
(§2) The reaction conditions were as follows: substrate, 0.5 μmol/L ethoxyresorufin (CYP1A2), 100 μmol/L tolbutamide (CYP2C9), 50 μmol/L, S-mephenytoin (CYP2C19), 5 μmol/L dextromethorphan (CYP2D6), 1 μmol/L terfenadine (CYP3A4): reaction time, 15 minutes: reaction temperature, 37° C.; enzyme, pooled human liver microsomes 0.2 mg protein/mL; concentrations of the compound of the present invention, 1, 5, 10, 20 μmol/L (four points).
(§3) Five kinds of substrates, human liver microsomes, and a compound solution of the present invention in […] Hepes buffer were added to a 96-well plate at the composition as described above as a reaction solution. NADPH as a cofactor was added to this 96-well plate in order to initiate metabolism reactions. After the incubation at 37° C.for […], a methanol/acetonitrile=1/1 (v/v) solution was added to stop the reaction. After the centrifugation at 3000 rpm for 15 minutes, resorufin (CYP1A2 metabolite) in the supernatant was quantified by a fluorescent plate reader, and hydroxytolbutamide (CYP2C9 metabolite), 4′-hydroxymephenytoin (CYP2C19 metabolite), dextrorphan (CYP2D6 metabolite), and terfenadine alcohol metabolite (CYP3A4 metabolite) in the supernatant were quantified by LC/MS/MS.
(§4) The sample adding DMSO to a reaction system instead of compound of the present invention solution was adopted as a control (100%) because DMSO was used as a solvent to dissolve a compound of the present invention. Remaining activity (%) was calculated at each concentration of a compound of the present invention, and IC50 value was calculated by reverse presumption by a logistic model using a concentration and an inhibition rate.

CYP2C9 = target: T5, CYP2C9 (Homo sapiens, UniProt P11712); experiment: CYP inhibition test (CYP2C9); type: in vitro ADME; settings: pooled human liver microsomes; tolbutamide methyl-hydroxylation
T5 construct: The commercially available pooled human liver microsomes are used as an enzyme resource; from tissue; host or cells: pooled human liver microsomes
T5 sequence (P11712 whole entry): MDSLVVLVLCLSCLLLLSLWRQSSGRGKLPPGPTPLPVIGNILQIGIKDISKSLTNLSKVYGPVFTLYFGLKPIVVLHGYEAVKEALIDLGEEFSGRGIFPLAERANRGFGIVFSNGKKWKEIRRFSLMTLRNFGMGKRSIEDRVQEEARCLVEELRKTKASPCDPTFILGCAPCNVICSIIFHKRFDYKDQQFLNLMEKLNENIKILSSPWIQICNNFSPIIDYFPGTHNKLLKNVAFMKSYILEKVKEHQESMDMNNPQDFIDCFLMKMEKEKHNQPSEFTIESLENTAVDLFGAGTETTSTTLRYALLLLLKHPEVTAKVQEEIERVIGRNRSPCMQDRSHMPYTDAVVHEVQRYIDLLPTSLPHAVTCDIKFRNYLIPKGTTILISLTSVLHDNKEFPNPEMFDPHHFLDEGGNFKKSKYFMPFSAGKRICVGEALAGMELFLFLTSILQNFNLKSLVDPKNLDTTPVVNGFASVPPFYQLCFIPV
Excerpt: as §1, §2, §3, §4

CYP1A2 = target: T6, CYP1A2 (Homo sapiens, UniProt P05177); experiment: CYP inhibition test (CYP1A2); type: in vitro ADME; settings: pooled human liver microsomes; 7-ethoxyresorufin O-deethylation
T6 construct: The commercially available pooled human liver microsomes are used as an enzyme resource; from tissue; host or cells: pooled human liver microsomes
T6 sequence (P05177 1-516): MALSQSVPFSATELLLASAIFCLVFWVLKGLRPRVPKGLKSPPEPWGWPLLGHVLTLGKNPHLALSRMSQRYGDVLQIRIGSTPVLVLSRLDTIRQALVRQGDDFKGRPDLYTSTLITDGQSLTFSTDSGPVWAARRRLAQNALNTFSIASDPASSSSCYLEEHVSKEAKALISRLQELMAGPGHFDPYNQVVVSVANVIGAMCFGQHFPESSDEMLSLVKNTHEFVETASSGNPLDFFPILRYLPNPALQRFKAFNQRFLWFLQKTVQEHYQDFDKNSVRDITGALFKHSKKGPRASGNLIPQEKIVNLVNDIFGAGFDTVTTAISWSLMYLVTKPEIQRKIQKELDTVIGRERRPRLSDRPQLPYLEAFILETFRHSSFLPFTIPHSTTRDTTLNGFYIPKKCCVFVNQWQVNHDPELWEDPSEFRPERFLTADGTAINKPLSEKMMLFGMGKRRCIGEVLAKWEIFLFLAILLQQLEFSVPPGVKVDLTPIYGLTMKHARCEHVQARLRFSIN
Excerpt: as §1, §2, §3, §4

CYP2C19 = target: T7, CYP2C19 (Homo sapiens, UniProt P33261); experiment: CYP inhibition test (CYP2C19); type: in vitro ADME; settings: pooled human liver microsomes; mephenytoin 4′-hydroxylation
T7 construct: The commercially available pooled human liver microsomes are used as an enzyme resource; from tissue; host or cells: pooled human liver microsomes
T7 sequence (P33261 whole entry): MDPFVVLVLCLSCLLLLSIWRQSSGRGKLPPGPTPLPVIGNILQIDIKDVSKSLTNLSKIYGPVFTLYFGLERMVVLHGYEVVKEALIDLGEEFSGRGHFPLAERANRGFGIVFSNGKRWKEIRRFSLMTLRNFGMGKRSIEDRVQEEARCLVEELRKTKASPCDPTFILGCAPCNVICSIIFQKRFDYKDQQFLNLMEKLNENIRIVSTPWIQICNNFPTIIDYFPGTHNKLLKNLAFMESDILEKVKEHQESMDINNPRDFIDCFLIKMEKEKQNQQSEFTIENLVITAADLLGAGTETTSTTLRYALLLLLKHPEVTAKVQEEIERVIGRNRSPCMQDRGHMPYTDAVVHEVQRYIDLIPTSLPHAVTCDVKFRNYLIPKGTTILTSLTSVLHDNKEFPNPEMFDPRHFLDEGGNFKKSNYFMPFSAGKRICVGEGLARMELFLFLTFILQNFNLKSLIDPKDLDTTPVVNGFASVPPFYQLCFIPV
Excerpt: as §1, §2, §3, §4

CYP2D6 = target: T8, CYP2D6 (Homo sapiens, UniProt P10635); experiment: CYP inhibition test (CYP2D6); type: in vitro ADME; settings: pooled human liver microsomes; dextromethorphan O-demethylation
T8 construct: The commercially available pooled human liver microsomes are used as an enzyme resource; from tissue; host or cells: pooled human liver microsomes
T8 sequence (P10635 whole entry): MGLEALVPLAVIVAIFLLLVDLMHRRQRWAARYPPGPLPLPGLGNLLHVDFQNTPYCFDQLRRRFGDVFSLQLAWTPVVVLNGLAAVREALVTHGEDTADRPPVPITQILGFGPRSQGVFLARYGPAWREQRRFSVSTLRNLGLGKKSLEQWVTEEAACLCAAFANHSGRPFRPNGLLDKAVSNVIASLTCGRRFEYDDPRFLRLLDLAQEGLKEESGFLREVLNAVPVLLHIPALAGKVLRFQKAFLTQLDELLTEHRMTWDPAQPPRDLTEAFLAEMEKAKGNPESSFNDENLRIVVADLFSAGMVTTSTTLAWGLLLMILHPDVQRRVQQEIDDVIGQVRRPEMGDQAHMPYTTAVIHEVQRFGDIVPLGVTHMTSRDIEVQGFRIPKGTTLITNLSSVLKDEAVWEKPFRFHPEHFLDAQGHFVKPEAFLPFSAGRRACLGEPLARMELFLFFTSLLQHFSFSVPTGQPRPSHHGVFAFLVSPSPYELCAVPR
Excerpt: as §1, §2, §3, §4

[4] = JP 1st fluid, pH 1.2, simulated gastric fluid, read-out: JP1

T1 sequence (Q12809 whole entry): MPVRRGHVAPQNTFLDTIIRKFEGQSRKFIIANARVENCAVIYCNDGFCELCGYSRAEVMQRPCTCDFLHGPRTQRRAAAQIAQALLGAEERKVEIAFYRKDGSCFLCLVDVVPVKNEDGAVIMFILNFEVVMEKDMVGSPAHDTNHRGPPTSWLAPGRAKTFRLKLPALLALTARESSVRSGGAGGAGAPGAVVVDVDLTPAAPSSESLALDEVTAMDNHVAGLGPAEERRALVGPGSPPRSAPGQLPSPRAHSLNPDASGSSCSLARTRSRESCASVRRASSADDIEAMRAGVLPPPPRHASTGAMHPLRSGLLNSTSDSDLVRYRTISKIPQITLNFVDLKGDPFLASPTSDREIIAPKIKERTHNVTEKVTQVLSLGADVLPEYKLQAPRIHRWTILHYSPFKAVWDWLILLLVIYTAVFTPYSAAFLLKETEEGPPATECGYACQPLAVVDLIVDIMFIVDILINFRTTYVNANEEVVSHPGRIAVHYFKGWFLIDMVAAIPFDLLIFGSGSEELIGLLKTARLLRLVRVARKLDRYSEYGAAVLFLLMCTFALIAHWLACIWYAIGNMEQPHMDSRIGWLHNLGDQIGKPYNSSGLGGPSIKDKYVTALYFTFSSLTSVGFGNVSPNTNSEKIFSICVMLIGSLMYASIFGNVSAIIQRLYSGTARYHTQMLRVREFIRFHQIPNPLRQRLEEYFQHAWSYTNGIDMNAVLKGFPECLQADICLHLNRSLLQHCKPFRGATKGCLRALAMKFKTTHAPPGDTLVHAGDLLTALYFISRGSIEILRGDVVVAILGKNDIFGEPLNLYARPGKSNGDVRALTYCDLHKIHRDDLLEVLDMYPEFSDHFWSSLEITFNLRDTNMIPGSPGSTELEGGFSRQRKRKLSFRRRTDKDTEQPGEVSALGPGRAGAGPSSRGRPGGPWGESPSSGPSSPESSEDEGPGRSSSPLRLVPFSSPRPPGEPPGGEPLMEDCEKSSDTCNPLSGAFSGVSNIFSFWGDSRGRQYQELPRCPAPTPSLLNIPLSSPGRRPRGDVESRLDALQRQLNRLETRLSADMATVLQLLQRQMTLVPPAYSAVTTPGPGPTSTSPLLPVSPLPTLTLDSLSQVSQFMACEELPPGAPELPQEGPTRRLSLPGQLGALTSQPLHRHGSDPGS

Row | Structure (SMILES) | hERG_3 uM_% [1] | remaining % (Metabolic stability test) | pIC50 [2] | pIC50 (Recombinant human BACE1) | solubility kinetic at 1 h (Solubility test; [4]) | solubility kinetic at 1 h (Solubility test; JP 2nd fluid B, pH 6.8, aqueous buffer, read-out: JP2_μM) | ER ratio (Cell: MDR1/LLC-PK1) [3] | pIC50 (CYP3A4) | pIC50 (CYP2C9) | pIC50 (CYP1A2) | pIC50 (CYP2C19) | solubility kinetic at 16 h (Solubility test; read-out: JP2_μM) | pIC50 (CYP2D6)
1 | C[C@H]1SC(N)=N[C@](C)(c2cc(NC(=O)c3ccc(OCC(F)(F)F)cn3)ccc2F)[C@H]1F [Compound I-54] | 37.7% | 91% | 8.14 | 7.89 | > 50 µM | 38.6 µM (≈ 18.3 µg/mL) | 1.9 |  |  |  |  |  | 
2 | COc1ccc(C(=O)Nc2ccc(F)c([C@@]3(C)N=C(N)SCC34CC(F)(F)C4)c2)nc1 [Compound I-57] |  |  | 9.17 | 7.79 | > 50 µM |  | 0.6 | ≤ 5.00 | ≤ 4.70 | ≤ 4.70 | ≤ 4.70 | >50 µM | 
3 | Cc1cc(C#N)cnc1C(=O)Nc1ccc(F)c([C@@]2(C)N=C(N)SCC23CC(F)(F)C3)c1 [Compound I-60] |  |  | 9.54 | 8.18 | > 50 µM |  | 1.4 |  | ≤ 4.70 | ≤ 4.70 | ≤ 4.70 | >50 µM | 
4 | COCC(F)(F)[C@H]1OC(N)=N[C@](C)(c2cc(NC(=O)c3ccc(C#N)cn3)ccc2F)[C@H]1F [Compound I-78] | 39.6% |  | 8.17 | 8.13 | > 50 µM |  |  | ≤ 5.00 | ≤ 4.70 | ≤ 4.70 | ≤ 4.70 | >50 µM | ≤ 5.00
5 | [2H]C([2H])([2H])Oc1cnc(C(=O)Nc2cccc([C@@]3(C)N=C(N)S[C@H](C)[C@@H]3F)c2)cn1 [Compound I-114] |  | 80.5% | 8.29 | 7.38 | > 50 µM |  |  | ≤ 4.70 | ≤ 5.00 | ≤ 4.70 | ≤ 4.70 | >50.0 µM | ≤ 4.70
6 | C[C@H]1SC(N)=N[C@](C)(c2cccc(NC(=O)c3ccc(F)cn3)c2)[C@H]1F [Compound I-115] |  | 78.9% | 8.14 | 7.46 | > 50 µM |  |  | ≤ 4.70 | ≤ 4.70 | ≤ 5.00 | ≤ 4.70 | >50.0 µM | ≤ 4.70

Reference: patent publication US20170073337A1, “DIHYDROTHIAZINE AND DIHYDROOXAZINE DERIVATIVES HAVING BACE1 INHIBITORY ACTIVITY” (Shionogi & Co., Ltd., priority 2014, published 2017)
